Positions of bridges follow the written chain, without caps; N, C: chain ends. No end group written: not given here.
How the values were obtained:
CD-1 mice [1] = assay: Acute toxicity, intravenous; type: in vivo, mouse; conditions: 1 mg/kg i.v., single; 24 h observation
Protocol: (§1) The animal studies were performed under the European Commission’s legislation (Directives 86/609/EEC, 2010/63/EU), the National Standard of the Russian Federation “Good Laboratory Practice” (GOST P 53434-2009, Moscow, Russia), and Committee on Ethics of Laboratory Animal Handling № 05/21, 20 September 2021 and 08/21, 30 December 2021 protocols (PIBOC FEB RAS). Adult female CD-1 mice weighing 25 ± 2 g were subjected to a 12 h light–dark cycle at room temperature and with ad libitum access to food and water. There were seven or eight individuals in each group.
Lyophilized peptides were dissolved in 0.9% NaCl solution (saline) and administered once intravenously at doses of 1 mg/kg; the control group received saline (10 mL/kg or 250 µL/mouse). Then, alterations in physiological parameters, such as motility, behavioral responses and physical activity, were registered in each of the animal groups over 24 h.

rat ASIC3 (rASIC3) = conditions: ref [41]; read-out: EC50, potentiation of rASIC3 current; cited from earlier work
CD-1 mice [2] = assay: Elevated plus maze test; type: in vivo, mouse; conditions: for N (h-d), number of hanging-down reactions / N (racks), vertical activity / N (sap), number of stretch-attend postures / N. entries, closed arms / N. entries, open arms / S (act), distance traveled during activity / S, distance traveled / T (act), activity time / T (e.c.z.), time of exit from the central zone / T (pass), passivity time / V, average travel speed / V(act), average movement speed during activity / N. entries, central area / T., time spent in closed arms / T., time spent in central area / T., time spent in open arms: mean ± SD
Protocol: as §1
The anti-anxiety activity of the peptides was studied using the elevated plus maze (OpenScience, Krasnogorsk, Russia) test, a cruciform arena raised 50 cm above the floor, where the central platform and two arms are open and lightened, and two arms are closed with walls. Three groups of animals were treated with peptides at doses of 0.01, 0.1 and 1 mg/kg (intravenously) 30 min before testing. The control group was injected with an identical volume (50 µL) of sterile saline. Animals were placed in the center of the lightened arena and the recording lasted 5 min. Using the software “Minotaur” (LLC “Neurobiotics”, Zelenograd, Russia), 12 parameters were estimated: time (T) of activity(act); passivity (pass); spent in closed, open arms, and on the central area; exit from the central zone (e.c.z.); average travel speed (V, m/s); average movement speed during activity (V(act)); distance traveled (S, m); distance traveled during activity (S (act)); a number (N) of entries into open, closed arms, and exits to the central area (entries); vertical activity (racks); and stretch–attend posture when the animal stretches to its full length mainly using the forepaws (sap).

rat ASIC1a (rASIC1a) [3] = tested on: rat ASIC1a (rASIC1a); parameters: method as in PMID 29684594, PMID 32326130; conditions: ref [40],[41]; read-out: IC50, inhibition of rASIC1a; cited from earlier work
CD-1 mice [4] = assay: Acetic-acid-induced writhings (acid-induced muscle pain model); type: in vivo, mouse
Protocol: as §1
Three groups of animals were treated with peptides at doses of 0.01, 0.1 and 1 mg/kg (intravenously) 15 min before an injection of 300 μL of a 0.7% acetic acid solution. The control animal group received an identical volume of saline. The positive control group received intravenously a dose 1 mg/kg of diclofenac (Hemofarm A.D., Vršac, Serbia), a commercial drug of the NSAID group. Fifteen minutes immediately after acid administration, the number of writhings and the writhing time (time in a spasmodic state) were counted.

rat ASIC1a (rASIC1a) [5] = assay: Two-electrode voltage clamp, rASIC1a in Xenopus laevis oocytes; type: cell-based; conditions: 1 μM; pH drop from 7.4 to 5.5; −50 mV; n = 5; recombinant peptide
[6] = 0.01 mg/kg i.v. 30 min before testing, n = 7–8
[7] = 0.1 mg/kg i.v. 30 min before testing, n = 7–8
[8] = 1 mg/kg i.v. 30 min before testing, n = 7–8
[9] = i.v. 15 min before 0.7% acetic acid

Sequence: GTPCDCYGYTGVYWFMLSRCPSGYGYNLSCHYFMGICCVKR (disulfide 4-37, 6-30, 20-38 (inferred)) [Hmg 1b-4]
- toxicity symptoms (CD-1 mice [1]): did not cause the symptoms of neurotoxicity or obvious changes in the behavior of animals
- EC50 (rat ASIC3 (rASIC3)): 1530 ± 70 nM
- N (h-d), number of hanging-down reactions (CD-1 mice [2]; [6]): 19 ± 6.6
- N (racks), vertical activity (CD-1 mice [2]; [6]): 34 ± 14.3
- N (sap), number of stretch-attend postures (CD-1 mice [2]; [6]): 15 ± 2.3
- N. entries, closed arms (CD-1 mice [2]; [6]): 18 ± 4.8
- N. entries, open arms (CD-1 mice [2]; [6]): 15 ± 3.3
- S (act), distance traveled during activity (CD-1 mice [2]; [6]): 42.6 ± 8.0 m
- S, distance traveled (CD-1 mice [2]; [6]): 44.3 ± 8.3 m
- T (act), activity time (CD-1 mice [2]; [6]): 161.7 ± 10.6 s
- T (e.c.z.), time of exit from the central zone (CD-1 mice [2]; [6]): 3 ± 1.5 s
- T (pass), passivity time (CD-1 mice [2]; [6]): 137.7 ± 11.2 s
- V, average travel speed (CD-1 mice [2]; [6]): 0.15 ± 0.03 m/s
- V(act), average movement speed during activity (CD-1 mice [2]; 0.01 mg/kg i.v. 30 min before testing, n = 7–8 (SD on later line: Hmg 1b-2 0.02, Hmg 1b-4 0.02)): 0.26 m/s
- N. entries, central area (CD-1 mice [2]; 0.01 mg/kg i.v. 30 min before testing, n = 7–8 (SD on later line: Hmg 1b-2 11.3)): 36±9.4
- T., time spent in closed arms (CD-1 mice [2]; 0.01 mg/kg i.v. 30 min before testing, n = 7–8 (SD on later line: Hmg 1b-2 35.7, Hmg 1b-4 18.7)): 180.1 s
- N (h-d), number of hanging-down reactions (CD-1 mice [2]; [7]): 20 ± 8.3
- N (racks), vertical activity (CD-1 mice [2]; [7]): 41 ± 4.8
- N (sap), number of stretch-attend postures (CD-1 mice [2]; [7]): 17 ± 3.6
- N. entries, central area (CD-1 mice [2]; [7]): 38 ± 8.4
- N. entries, closed arms (CD-1 mice [2]; [7]): 20 ± 6.6
- N. entries, open arms (CD-1 mice [2]; [7]): 22 ± 3.5
- S (act), distance traveled during activity (CD-1 mice [2]; [7]): 45.1 ± 6.1 m
- S, distance traveled (CD-1 mice [2]; [7]): 46.8 ± 6.1 m
- T (act), activity time (CD-1 mice [2]; [7]): 170.8 ± 16.1 s
- T (e.c.z.), time of exit from the central zone (CD-1 mice [2]; [7]): 8 ± 3.6 s
- T., time spent in central area (CD-1 mice [2]; [7]): 78.7 ± 15.3 s
- T., time spent in closed arms (CD-1 mice [2]; [7]): 169 ± 30.2 s
- T., time spent in open arms (CD-1 mice [2]; [7]): 84.3 ± 28.7 s
- V, average travel speed (CD-1 mice [2]; [7]): 0.14 ± 0.02 m/s
- V(act), average movement speed during activity (CD-1 mice [2]; 0.1 mg/kg i.v. 30 min before testing, n = 7–8 (SD on later line: Hmg 1b-2 0.01, Hmg 1b-4 0.03)): 0.27 m/s
- T (pass), passivity time (CD-1 mice [2]; 0.1 mg/kg i.v. 30 min before testing, n = 7–8 (SD on later line: Hmg 1b-2 19.8)): 128 ± 15.7 s
- N (h-d), number of hanging-down reactions (CD-1 mice [2]; [8]): 18 ± 5.2
- N (racks), vertical activity (CD-1 mice [2]; [8]): 45 ± 8.4
- N (sap), number of stretch-attend postures (CD-1 mice [2]; [8]): 14 ± 1.8
- N. entries, central area (CD-1 mice [2]; [8]): 29 ± 3.4
- N. entries, closed arms (CD-1 mice [2]; [8]): 19 ± 3.3
- N. entries, open arms (CD-1 mice [2]; [8]): 20 ± 2.5
- S (act), distance traveled during activity (CD-1 mice [2]; [8]): 41.0 ± 7.5 m
- S, distance traveled (CD-1 mice [2]; [8]): 43.1 ± 7.1 m
- T (act), activity time (CD-1 mice [2]; [8]): 174 ± 17.9 s
- T (e.c.z.), time of exit from the central zone (CD-1 mice [2]; [8]): 8 ± 6.5 s
- T., time spent in central area (CD-1 mice [2]; [8]): 73.8 ± 14.6 s
- T., time spent in open arms (CD-1 mice [2]; [8]): 89.6 ± 18.5 s
- V, average travel speed (CD-1 mice [2]; [8]): 0.14 ± 0.03 m/s
- V(act), average movement speed during activity (CD-1 mice [2]; 1 mg/kg i.v. 30 min before testing, n = 7–8 (SD on later line: Hmg 1b-2 0.02, Hmg 1b-4 0.04)): 0.25 m/s
- T (pass), passivity time (CD-1 mice [2]; 1 mg/kg i.v. 30 min before testing, n = 7–8 (SD on later line: Hmg 1b-2 21.9, Hmg 1b-4 17.7)): 125.7 s
- T., time spent in closed arms (CD-1 mice [2]; 1 mg/kg i.v. 30 min before testing, n = 7–8 (SD on later line: Hmg 1b-2 32.7, Hmg 1b-4 17.2)): 160.2 s
- activity and immobility time, travelled distance and mean speed (CD-1 mice [2]; i.v.): approximately the same in all groups
- anxiolytic effect (CD-1 mice [2]; i.v.): exhibit an anxiolytic effect
- number of hangings from open sleeves (CD-1 mice [2]; i.v.): increase in the number of hangings from open sleeves
- rears number (CD-1 mice [2]; i.v.): increase
- close area (closed arms) preference, share of time (CD-1 mice [2]; i.v., control group 63%): 50%
- IC50 (rat ASIC1a (rASIC1a) [3]): 1250 nM
- difference in analgesic activity between the two peptides (CD-1 mice [4]; i.v.): no significant difference in analgesic activity between each other
- reduction in duration of writhings vs control (CD-1 mice [4]; [9]): more than 2.5 times
- reduction in number of writhings vs control (CD-1 mice [4]; [9]): 1.5 times
- inhibition of rASIC1a currents (rat ASIC1a (rASIC1a) [5]): 45%
